In patent EP3635128B1, “CONTINUOUS SPECTROMETRIC ASSAYS FOR MEASURING MEPRIN ACTIVITY USING AN AUXILIARY ENZYME” (Vivoryon Therapeutics AG, priority 2017, dated 2018):
Like-named read-outs stand apart in the source and are kept apart here. Peptide text beside a SMILES is read from it. * marks the point of attachment. pNA = O=[N+]([O-])c1ccc(N*)cc1; AMC = Cc1cc(=O)oc2cc(N*)ccc12

Experiments:
h-meprin β [1] = target: T1, h-meprin β (Homo sapiens, UniProt Q16820); test: coupled continuous fluorometric assay with auxiliary enzyme PtP and fluorogenic AMC substrates; type: biochemical; parameters: His6 (N); made in house; host or cells: Pichia pastoris strain X33
T1 sequence (Q16820 62-701): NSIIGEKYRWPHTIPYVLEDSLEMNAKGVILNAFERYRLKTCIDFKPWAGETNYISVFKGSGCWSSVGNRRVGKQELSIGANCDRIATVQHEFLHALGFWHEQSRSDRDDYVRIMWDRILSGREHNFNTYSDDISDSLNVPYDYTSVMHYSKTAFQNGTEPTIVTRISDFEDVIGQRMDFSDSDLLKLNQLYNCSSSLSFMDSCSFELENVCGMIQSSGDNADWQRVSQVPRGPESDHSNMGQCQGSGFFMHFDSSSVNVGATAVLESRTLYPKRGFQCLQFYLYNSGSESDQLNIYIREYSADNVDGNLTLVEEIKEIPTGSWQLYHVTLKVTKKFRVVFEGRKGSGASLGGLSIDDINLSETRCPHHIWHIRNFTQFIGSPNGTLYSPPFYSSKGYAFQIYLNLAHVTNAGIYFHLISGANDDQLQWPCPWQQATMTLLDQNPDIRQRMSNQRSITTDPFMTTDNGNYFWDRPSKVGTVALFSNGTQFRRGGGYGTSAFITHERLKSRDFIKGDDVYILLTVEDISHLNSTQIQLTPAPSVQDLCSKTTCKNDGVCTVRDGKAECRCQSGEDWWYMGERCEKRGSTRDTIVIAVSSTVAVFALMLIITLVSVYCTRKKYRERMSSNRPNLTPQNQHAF
Description: (§1) The enzyme assay consisted of prolyl tripeptidyl aminopeptidase from Porphyromonas gingivalis, an appropriate amount of human h-meprin β or α and the chromogenic substrate KKGYVADAP-pNA (stock solution in assay buffer) in a final volume of 0.25 ml h-meprin β assay buffer (20 mM Tris-HCI; pH 7.5) or h-meprin α assay buffer (20 mM HEPES, 10 mM CaCl2, 0,05% Brij; pH 7.4). After 10 minutes preincubation, the reaction was started by addition of the substrate. Subsequently, absorption was measured at 405 nm for 20 minutes with the Tecan Genios Pro Reader (Tecan) at 30°C. PtP activity was determined using an absorption coefficient of 5717 mol/l, which was obtained from a standard curve of p-nitroaniline under assay conditions. A molecular mass of 79500 Da was used to calculate the Kcat value. Prolyl tripeptidyl aminopeptidase activity was measured utilizing the substrate DAP-pNA. In order to maintain conditions identical to those used in the h-meprin β assay, samples (250 µl) contained a final concentration of 0.2% (v/v) dimethyl sulfoxide. One unit is defined as the amount of enzyme that hydrolyses 1 µmol DAP-pNA per minute under the conditions described. The specific activity of the enzyme preparation was 7 units/mg.
Conversion of the fluorogenic substrate KKGYVADAP-AMC by PtP and h-meprin β was analyzed according to assay conditions as described for the chromogenic substrate. Fluorescence was measured at excitation/emission wavelengths of 380/460 nm. The fluorescence coefficient of 8.5×10^8 mol/l for DAP-AMC was calculated from a standard curve of 7-Amino-4-methylcoumarin under assay conditions.

h-meprin β [2] = target: T1, h-meprin β; test: coupled continuous spectrophotometric assay with auxiliary enzyme PtP and chromogenic pNA substrates; type: biochemical; parameters: His6 (N); made in house; host or cells: Pichia pastoris strain X33; details: for Kcat / Kcat/KM (s^-1M^-1) / Km: hydrolysis of pNA substrate by meprin β, means ± S.D.
Description: as §1
(§2) In the first reaction of the substrate conversion, KKGYVADAP-pNA is cleaved to DAP-pNA by meprin α or β. The second reaction, the release of p-nitroaniline by PtP can be measured in this assay and correlates to the amount of released DAP-pNA by meprin. Based on these terms, a rate equation for irreversible coupled enzyme assays was first described by McClure, giving the opportunity of calculating the required amount of an auxiliary enzyme to minimize the time to reach steady-state conditions (McClure, W. R., Biochemistry. 1969, 8 (7), 2782-2786; Schilling, S., Hoffmann, T., Wermann, M., Heiser, U., Wasternack, C., Demuth, H.-U., Analytical biochemistry. 2002, 303 (1), 49-56, 10.1006/abio.2001.5560). The amount of auxiliary enzyme was calculated as follows (Eq. 1): V2 = −Km2 × ln(1−[DAP−pNA]t/[DAP−pNA]ss)/t. [formula]

h-meprin α [3] = target: T2, h-meprin α (Homo sapiens, UniProt Q16819); test: coupled continuous spectrophotometric assay with auxiliary enzyme PtP and chromogenic substrate KKGYVADAP-pNA; type: biochemical
T2 construct: His-tag (N); made in house; host or cells: Drosophila melanogaster S2 cells, stably transfected (pMT/BiP/V5-His C), protein harvested from the culture medium
T2 sequence (Q16819 66-746): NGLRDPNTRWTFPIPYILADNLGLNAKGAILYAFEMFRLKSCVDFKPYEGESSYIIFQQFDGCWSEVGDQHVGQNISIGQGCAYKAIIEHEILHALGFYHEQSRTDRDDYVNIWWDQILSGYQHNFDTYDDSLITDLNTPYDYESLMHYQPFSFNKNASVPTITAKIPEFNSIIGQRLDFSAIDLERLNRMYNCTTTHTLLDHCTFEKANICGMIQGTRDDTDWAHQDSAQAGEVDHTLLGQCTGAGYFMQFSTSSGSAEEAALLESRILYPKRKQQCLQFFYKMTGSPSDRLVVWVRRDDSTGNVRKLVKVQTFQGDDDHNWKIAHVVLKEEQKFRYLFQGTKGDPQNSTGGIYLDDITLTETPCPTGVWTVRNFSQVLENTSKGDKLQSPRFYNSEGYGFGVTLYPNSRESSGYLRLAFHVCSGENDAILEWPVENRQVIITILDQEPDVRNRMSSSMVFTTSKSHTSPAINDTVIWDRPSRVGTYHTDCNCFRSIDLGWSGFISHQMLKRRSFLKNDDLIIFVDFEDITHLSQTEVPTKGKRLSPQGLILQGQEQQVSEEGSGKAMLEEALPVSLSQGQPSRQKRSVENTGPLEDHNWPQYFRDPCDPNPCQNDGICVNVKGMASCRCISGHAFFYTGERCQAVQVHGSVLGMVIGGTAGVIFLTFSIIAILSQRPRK
Description: as §1, §2

h-meprin α [4] = target: T2, h-meprin α; test: non-coupled assay with internally quenched fluorogenic substrate; type: biochemical; details: fluorogenic substrate Abz-YVADAPK(Dpn)G-OH; unpublished data
h-meprin β [5] = target: T1, h-meprin β; test: coupled continuous spectrophotometric assay with auxiliary enzyme PtP and chromogenic pNA substrates; type: biochemical; parameters: His6 (N, cleaved yes); made in house; host or cells: Pichia pastoris X33 (pPICZαC), protein harvested from the fermenter supernatant
Description: as §1, §2

h-meprin β [6] = target: T1, h-meprin β; parameters: His6 (N, cleaved yes); made in house; host or cells: Pichia pastoris X33 (pPICZαC), protein harvested from the fermenter supernatant; details: fluorogenic substrate Abz-YVAEAPK(Dpn)G-OH; from Schlenzig et al. 2015; cited from earlier work
h-meprin β [7] = target: T1, h-meprin β; parameters: His6 (N); made in house; host or cells: Pichia pastoris strain X33; details: cited from earlier work; for substrate inhibition at concentrations above: internally quenched substrate, meprin β
[8] = hydrolysis of AMC substrate by meprin β, means ± S.D.
[9] = Dixon plot, four substrate concentrations of KKGYVADAP-pNA
[10] = chromogenic substrate KKGYVADAP-pNA, coupled continuous assay, means ± S.D.
[11] = substrate KKGYVADAP-pNA, six inhibitor and four substrate concentrations
[12] = hydrolysis of internally quenched substrate by meprin β, from Schlenzig et al. 2015

## CC(=O)N[C@@H](CCCCN)C(=O)N[C@@H](CCCCN)C(=O)NCC(=O)N[C@@H](Cc1ccc(O)cc1)C(=O)N[C@H](C(=O)N[C@@H](C)C(=O)N[C@@H](CC(=O)O)C(=O)N[C@@H](C)C(=O)N1CCC[C@H]1C(=O)Nc1ccc2c(C)cc(=O)oc2c1)C(C)C [Ac-KKGYVADAP-AMC] (Ac-KKGYVADAP-{AMC})
h-meprin β [1]; [8]
  Kcat: 6.3 ± 1 s⁻¹
  Kcat/KM (s^-1M^-1): 10.0×10^4 ± 1.4×10^4 s^-1M^-1
  Km: 64 µM

## CC(=O)N[C@@H](CCCCN)C(=O)N[C@@H](CCCCN)C(=O)NCC(=O)N[C@@H](Cc1ccc(O)cc1)C(=O)N[C@H](C(=O)N[C@@H](C)C(=O)N[C@@H](CC(=O)O)C(=O)N[C@@H](C)C(=O)N1CCC[C@H]1C(=O)Nc1ccc([N+](=O)[O-])cc1)C(C)C [Ac-KKGYVADAP-pNA] (Ac-KKGYVADAP-pNA)
h-meprin β [2]
  Kcat: 20.0 ± 3.5 s⁻¹
  Kcat/KM (s^-1M^-1): 6.4x10^4 ± 2.5x10^4 s^-1M^-1
  Km: 360 µM

## CC(=O)N[C@@H](CCCNC(=N)N)C(=O)NCC(=O)N[C@@H](CCCNC(=N)N)C(=O)NCC(=O)N[C@@H](Cc1ccc(O)cc1)C(=O)N[C@H](C(=O)N[C@@H](C)C(=O)N[C@@H](CC(=O)O)C(=O)N[C@@H](C)C(=O)N1CCC[C@H]1C(=O)Nc1ccc([N+](=O)[O-])cc1)C(C)C [Ac-RGRGYVADAP-pNA] (Ac-RGRGYVADAP-pNA)
h-meprin β [2]
  Kcat: 19.9 ± 10.2 s⁻¹
  Kcat/KM (s^-1M^-1): 15.0×10^4±1.1×10^5 s^-1M^-1
  Km: 140 µM

## Cc1cc(=O)oc2cc(NC(=O)[C@@H]3CCCN3C(=O)[C@H](C)NC(=O)[C@H](CC(=O)O)NC(=O)[C@H](C)NC(=O)[C@@H](NC(=O)[C@H](Cc3ccc(O)cc3)NC(=O)CNC(=O)[C@H](CCCCN)NC(=O)[C@@H](N)CCCCN)C(C)C)ccc12 [KKGYVADAP-AMC, H-Lys-Lys-Gly-Tyr-Val-Ala-Asp-Ala-Pro-AMC] (H-KKGYVADAP-{AMC})
h-meprin β [1]; at concentrations up to 2 mM
  substrate inhibition: no inhibitory effect
h-meprin β [1]; [8]
  Kcat (s^-1): 4.3 ± 6.1×10^-1 s^-1
  Kcat/KM (s^-1M^-1): 6.0×10^4 ± 1.6×10^4 s^-1M^-1
  Km: 74 µM

## CC(C)[C@H](NC(=O)[C@H](Cc1ccc(O)cc1)NC(=O)CNC(=O)[C@H](CCCCN)NC(=O)[C@@H](N)CCCCN)C(=O)N[C@@H](C)C(=O)N[C@@H](CC(=O)O)C(=O)N[C@@H](C)C(=O)N1CCC[C@H]1C(=O)Nc1ccc([N+](=O)[O-])cc1 [KKGYVADAP-pNA, H-Lys-Lys-Gly-Tyr-Val-Ala-Asp-Ala-Pro-pNA] (H-KKGYVADAP-pNA)
h-meprin β [2]; at concentrations up to 2 mM
  substrate inhibition: no inhibitory effect
h-meprin β [2]
  Kcat: 20 ± 4.1 s⁻¹
  Kcat/KM (s^-1M^-1): 11.0×10^4 ± 4.8×10^3 s^-1M^-1
  Km: 180 µM

## CCCCC[C@H](CC(=O)NO)C(=O)N[C@H](C(=O)N1CCC[C@H]1CO)C(C)C [actinonin]
h-meprin α [3]; [9]
  mode of inhibition: competitive
h-meprin α [3]; [10]
  IC50: 12 nM
h-meprin α [3]; [11]
  Ki: 3.2 nM
h-meprin α [4]
  IC50: 9.6 nM
h-meprin β [5]; [9]
  mode of inhibition: competitive
h-meprin β [5]; [10]
  IC50: 760 nM
h-meprin β [5]; [11]
  Ki: 270 nM
h-meprin β [6]
  IC50: 440 nM

## Abz-MGWMDEIDK(Dnp)SG-OH [OCK+]
h-meprin β [7]
  substrate inhibition at concentrations above: above 40 µM

## Abz-YVAEAPK(Dpn)G-OH
h-meprin β [7]; [12]
  Kcat: 35.0 ± 2.5 s⁻¹
  Kcat/KM (s^-1M^-1): 129.0×10^4 ± 3.0×10^4 s^-1M^-1
  Km: 27 µM
h-meprin β [7]
  substrate inhibition at concentrations above: above 100 µM
